Measurements from patent publication US20250186379A1, “METHODS AND AGENTS FOR DECREASING INSULIN RESISTANCE” (Whitehead Institute for Biomedical Research, priority 2021, published 2025).
Entries after “also recorded” stand apart in the source; their conditions may differ.

Test system: insulin signaling proteins (IR, IRS1, AKT, ERK, GSK3)
Assay: Immunoblot of phosphorylated over total insulin signaling proteins in HepG2 cells
Assay type: cell-based, human
Method: Cells were washed with ice-cold PBS and lysed in Cell Lytic M (Sigma-Aldrich C2978) supplemented with protease and phosphatase inhibitors (Sigma Aldrich, 11873580001 and 4906837001) directly on the wells. Lysates were placed into a 1.5 ml tube and mixed at 4° C. for 20 min and then centrifuged at 13,000 rpm for 15 min. Protein concentration was determined using a BCA Protein Assay Kit (Life Technologies, 23250) according to the manufacturer's instructions. Equal amounts of protein (5-50 μg per sample) were separated on 10% or 12% Bis-Tris gels in 5% XT MOPS running buffer (Bio-Rad Laboratories, 1610788) at 100V until dye front reached the end of the gel. Protein was then transferred to a 0.45 μM PVDF membrane (Millipore, IPVH00010) in ice cold transfer buffer (25 mM Tris, 192 mM glycine, 20% methanol) at 300 mA for 1 hour or 250 mA for 2 hours at 4° C. After the transfer, membranes were blocked in 5% non-fat milk (LabScientific, M0842) dissolved in TBST (2% Tris HCl pH 8.0, 1.3% 5M NaCl, 0.05% Tween 20) or 5% BSA (VWR, 102643-516) in 1×TBST for 15 min to 1 hour at room temperature shaking. Membranes were then incubated overnight at 4° C. in 1:1000 primary antibody in 5% non-fat milk in TBST or 5% BSA in TBST. BSA was used for immunoblotting phosphorylated proteins, otherwise milk was used. Membranes were then washed three times for 5 min in TBST shaking at room temperature prior to incubation in 1:10,000 secondary antibody in 5% non-fat milk in TBST for 1 hour at room temperature. This was followed by three 10-minute washes in TBST. Membranes were developed with ECL substrate (Thermo Scientific, 34080) and imaged using a CCD camera. Immunoblot quantification was performed using the “analyze gel” tool on Fiji/ImageJ v2.1.0/153c.
The following primary antibodies were used for WB: anti-phosphorylated insulin receptor (Abcam, ab60946 and Cell Signaling 3026), anti-insulin receptor beta (Cell Signaling, 23413; Bethyl, A303-712A or Cell Signaling, 3025), anti-insulin receptor alpha (Cell Signaling, 74118), anti-phosphorylated AKT (Cell Signaling, 4056), anti-AKT (Cell Signaling, 9272), anti-phosphorylated ERK (Cell Signaling, 4377), anti-ERK (Cell Signaling, 9102), anti-beta Actin (Sigma Aldrich, A5441). The following secondary antibodies were used: donkey anti-rabbit IgG (Cytiva Life Sciences, NA934-1ML) and sheep anti-mouse IgG (Sigma Aldrich, NXA931V).
Cells were washed with ice-cold PBS (Life Technologies, AM9625) and lysed in Cell Lytic M (Sigma Aldrich C2978) supplemented with protease and phosphatase inhibitors (Sigma Aldrich, 11873580001 and 4906837001) directly on the wells. Lysates were placed into a 1.5 ml tube and mixed at 4° C. for 20 minutes, sonicated and then centrifuged at 12,000×g for 15 minutes. Super natant was collected and protein concentration was determined using a BCA Protein Assay Kit (Life Technologies, 23250) according to the manufacturer's instructions. Equal amounts of protein (5-50 μg per sample) were separated on 10% or 12% Bis-Tris gels in 5% XT MOPS running buffer (Bio-Rad Laboratories, 1610788) at 100V until dye front reached the end of the gel. Protein was then transferred to a 0.45 μM PVDF membrane (Millipore, IPVH00010) in ice cold transfer buffer (25 mM Tris, 192 mM glycine, 20% methanol) at 300 mA for 1 hour or 250 mA for 2 hours at 4° C. After the transfer, membranes were blocked in either 5% non-fat milk (LabScientific, M0842) dissolved in TBST (2% Tris HCl pH 8.0, 1.3% 5M NaCl, 0.05% Tween 20) or 5% BSA (VWR, 102643-516) in 1×TBST for 15 minutes to 1 hour at room temperature with shaking. Membranes were then incubated overnight at 4° C. in 1:1000 primary antibody (specific antibodies listed below) in 5% non-fat milk in TBST or 5% BSA in TBST. BSA was used for immunoblotting phosphorylated proteins, otherwise milk was used. […]

[1] = insulin-sensitive HepG2 cells, acute insulin stimulation

Row | Compound | phosphorylation of GSK3 after insulin stimulation (cells exposed to pathologic levels (3 nM) of insulin for two days) | phosphorylation of insulin signaling proteins after insulin stimulation (cells exposed to pathologic levels (3 nM) of insulin for two days vs physiologic (0.1 nM)) | GSK3 phosphorylation (insulin-sensitive HepG2 cells, 3 nM insulin 5 minutes) | AKT and ERK pathway activation [1] | IR phosphorylation [1] | IRS1 phosphorylation (pIRS1 over total IRS1, western blot) (insulin-resistant cells + metformin (FIG. 38))
1 | insulin: insulin (Sigma Aldrich, I9278-5ML) used for acute stimulation and chronic physiological or pathological exposure | decreased phosphorylation of GSK3 | reduced phosphorylation of IR, IRS1, AKT and ERK | increased GSK3 phosphorylation | stimulate; also recorded: AKT and ERK pathway activation | stimulate; also recorded: induced IR phosphorylation | 
2 | CN(C)C(=N)N=C(N)N [metformin, reference compound] |  |  |  |  |  | partial rescue of IRS1 phosphorylation; also recorded: partially rescues phosphorylation of IRS1
